Test results taken from patent US8629168B2, “Benzoxazoles and oxazolopyridines being useful as janus kinases inhibitors” (priority 2006, dated 2014).

Legend:
GST-JAK2 = molecular target: T1, GST-JAK2 (Homo sapiens, UniProt O60674); experiment: JAK2 kinase assay of the general description (alternative method, flash plate); format: biochemical; conditions: 1.0 μM ATP, read-out: IC50 with test in general description (named “alternative method to that given in the examples”) (“flash plate”)
T1 construct: the amino acid domain ASP751-VAL1129 of the JAK2 protein
T1 sequence (O60674 751-1129): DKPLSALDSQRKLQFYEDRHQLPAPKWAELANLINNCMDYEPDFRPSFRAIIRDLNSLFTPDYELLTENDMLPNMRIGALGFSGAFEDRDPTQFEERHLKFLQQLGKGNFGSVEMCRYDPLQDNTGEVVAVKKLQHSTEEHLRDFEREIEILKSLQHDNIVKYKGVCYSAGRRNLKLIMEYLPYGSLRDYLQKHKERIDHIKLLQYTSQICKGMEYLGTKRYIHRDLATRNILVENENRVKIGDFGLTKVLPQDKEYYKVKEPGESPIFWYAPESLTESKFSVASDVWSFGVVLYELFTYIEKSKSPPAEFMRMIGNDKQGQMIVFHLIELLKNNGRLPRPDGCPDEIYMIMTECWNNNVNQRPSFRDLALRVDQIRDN
Method: Baculovirus including the amino acid domain ASP751-VAL1129 of the JAK2 protein is obtainable by ProQinase, Freiburg, Germany. The virus is scaled up as following: Virus containing media is collected from the transfected cell culture and used for infection to increase its titer. Virus containing media obtained after two rounds of infection is used for large-scale protein expression. For large-scale protein expression 100 cm^2 round tissue culture plates are seeded with 5×10^7 cells/plate and infected with 1 mL of virus-containing media (approx. 5 MOIs). After 3 days the cells are scraped off the plate and centrifuged at 500 rpm for 5 min. Cell pellets from 10-20, 100 cm^2 plates, are re-suspended in 50 mL of ice-cold lysis buffer (25 mMTris-HCl, pH7.5, 2 mMEDTA, 1% NP-40, 1 mM DTT, 1 mMP MSF). The cells are stirred on ice for 15 min and then centrifuged at 5000 rpms for 20 min. The protein is purified by loading the centrifuged cell lysate onto a 2 mL glutathione-sepharose column and washed three times with 10 mL of 25 mM Tris-HCl, pH 7.5, 2 mM EDTA, 1 mM DTT, 200 mM NaCl. The GST-tagged proteins are then eluted by 10 applications (1 mL each) of 25 mM Tris-HCl, pH 7.5, 10 mM reduced-glutathione, 100 mM NaCl, 1 mM DTT, 10% Glycerol and stored at −70° C.
Cancer Cell; 5: 231-239]. The test compound is dissolved in DMSO (10 mM) and stored at −20° C. Serial dilutions are freshly made in DMSO and are […] concentrated than test solutions (“pre-dilution plates”). They are further diluted with pure water to yield “master plates” containing 3 times concentrated test solutions in 3% DMSO. The final volume of the assay is 30 μL containing 10 μL of test solution (1% DMSO), 10 μL assay mix including the assay components described by Garcia-Echeverria (2004) and in the following section as well as 10 μL enzyme. The pipetting steps can be programmed to be performed either on the MultiPROBE Iix, MultiPROBE IILx or HamiltonSTAR robots in the 96 well format.
The protein kinase assays are carried as described in details by Garcia-Echeverria (see above). The assay for JAK2 is carried out in 96-well plates at ambient temperature for 10 min (filter-biding method) or 30 min (flash plates) in a finial volume of 30 μL including the following components: 300 ng of GST-JAK2, 20 mM Tris-HCl, pH 7.5, 1.0 mM MnCl2, 10 mM MgCl2, 1 mM DTT, 3 μg/mL poly(Glu, Tyr) 4:1, 1% DMSO and 1.0 μM ATP (γ-[^33P]-ATP 0.1 μCi); The assays are terminated by the addition of 20 μl of 125 mM EDTA. The capturing of the phosphorylated peptides by the filter-binding method is performed as following: 40 μL of the reaction mixture are transferred onto Immobilon-PVDF membranes previously soaked for 5 min with methanol, rinsed with water, then soaked for 5 min with 0.5% H3PO4 and mounted on vacuum manifold with disconnected vacuum source. After spotting all samples, vacuum is connected and each well rinsed with 200 μl 0.5% H3PO4. Free membranes are removed and washed 4× on a shaker with 1.0% H3PO4, once with ethanol. Membranes are counted after drying at ambient temperature, mounting in Packard TopCount 96-well frame, and addition of 10 μl/well of Microscint. The plates are eventually sealed and counted in a microplate scintillation counter (TopCount NXT, TopCount NXT HTS, PerkinElmer, Brussels, Belgium).
The assays for the flash plate method is carried out in a total volume of 30 μL at RT in conventional 96-well flash plates. The reaction is stopped after 30 min by the addition of 20 μL of 125 mM EDTA The assay plates are then washed three times with PBS and dried at room temperature. The plates are sealed and counted in a microplate scintillation counter (TopCount NXT, TopCount NXT HTS). IC50 values are calculated by linear regression analysis of the percentage inhibition of the compound either in duplicate, at four concentrations (usually 0.01, 0.1, 1 and 10 μM) or as 8 single point IC50 starting at 10 μM following by 1:3 dilutions.

GST-JAK2(808-1132) = molecular target: T2, GST-JAK2(808-1132) (Homo sapiens, UniProt O60674); experiment: EPK JAK/TYK-kinase family profiling assay (Caliper mobility shift), JAK2; format: biochemical; conditions: Caliper mobility shift assay of Example 187, 20 μM ATP, read-out: IC50 with Test in present Example
T2 construct: GST-JAK2(808-1132) is purchased from Invitrogen; purchased Invitrogen (Carlsbad, USA) #4288
T2 sequence (O60674 808-1132): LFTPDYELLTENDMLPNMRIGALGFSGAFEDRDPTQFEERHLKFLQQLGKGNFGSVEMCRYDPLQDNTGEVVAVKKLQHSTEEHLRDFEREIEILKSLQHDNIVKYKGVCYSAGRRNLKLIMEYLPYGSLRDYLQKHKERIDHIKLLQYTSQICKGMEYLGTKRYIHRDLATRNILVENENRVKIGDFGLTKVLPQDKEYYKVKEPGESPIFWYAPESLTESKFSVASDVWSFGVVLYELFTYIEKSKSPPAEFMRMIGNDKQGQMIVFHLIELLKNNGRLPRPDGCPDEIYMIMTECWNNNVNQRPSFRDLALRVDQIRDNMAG
Summary of the method: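 Caliper mobility-shift assay with the GST-tagged kinase domain and a fluorescently labeled peptide substrate plus ATP, run 60 min at 30° C and then stopped with EDTA buffer. Turnover was taken as the substrate/product ratio. Compounds were tested at eight final concentrations from 10 to 0.003 μM.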

Compound | melting point [°C] | IC50 (GST-JAK2) [nM] | IC50 (GST-JAK2(808-1132)) [nM]
COc1cc(Nc2nc3cccc(-c4ccc5[nH]cnc5c4)c3o2)cc(OC)c1OC (hydrate or solvate) [Example 35, [7-(1H-Benzoimidazol-5-yl)-benzooxazol-2-yl]-(3,4,5-trimethoxy-phenyl)-amine] | 150 to 156 |  | 
COc1cc(Nc2nc3cccc(-c4ccc(NS(C)(=O)=O)cc4)c3o2)cc(OC)c1OC (hydrate or solvate) [Example 26, N-{4-[2-(3,4,5-Trimethoxy-phenylamino)-benzooxazol-7-yl]-phenyl}-methanesulfonamide] | 222 to 225 |  | 
CNS(=O)(=O)c1ccc(-c2cccc3nc(Nc4ccc(OC)cc4)oc23)cc1 [Example 139, 4-[2-(4-Methoxy-phenylamino)-benzooxazol-7-yl]-N-methyl-benzenesulfonamide] |  | 400 | 120
COc1cc(Nc2nc3ccnc(-c4ccc(N)cc4)c3o2)cc(OC)c1OC (hydrate or solvate) [Example 36, [4-(4-Amino-phenyl)-oxazolo[5,4-c]pyridin-2-yl]-(3,4,5-trimethoxy-phenyl)-amine] | 148 to 151 |  | 
CNC(=O)c1cc(-c2cccc3nc(Nc4cc(OC)c(OC)c(OC)c4)oc23)cs1 (hydrate or solvate) [Example 34, 4-[2-(3,4,5-Trimethoxy-phenylamino)-benzooxazol-7-yl]-thiophene-2-carboxylic acid methylamide] | 260 to 262 |  | 
COc1ccc(-c2cccc3nc(Nc4cc(OC)c(OC)c(OC)c4)oc23)cc1 [Example 7, [7-(4-Methoxy-phenyl)-benzooxazol-2-yl]-(3,4,5-trimethoxy-phenyl)-amine] | 179 to 182 |  | 
COc1ccc(Nc2nc3cccc(-c4ccc(S(N)(=O)=O)cc4)c3o2)cc1OC [Example 58, 4-[2-(3,4-Dimethoxy-phenylamino)-benzooxazol-7-yl]-benzenesulfonamide] |  | 41.5 | 37
COCCNC(=O)c1ccc(Nc2nc3cccc(-c4ccc(S(N)(=O)=O)cc4)c3o2)cc1 [Example 56, N-(2-Methoxy-ethyl)-4-[7-(4-sulfamoyl-phenyl)-benzooxazol-2-ylamino]-benzamide] |  | 110 | 51
COc1cc(Nc2nc3cccc(-c4ccc(S(N)(=O)=O)cc4)c3o2)cc(OC)c1 [Example 60, 4-[2-(3,5-Dimethoxy-phenylamino)-benzooxazol-7-yl]-benzenesulfonamide] |  | 160 | 170
COc1cc(Nc2nc3cccc(-c4ccc(CNC(C)=O)cc4)c3o2)cc(OC)c1OC (hydrate or solvate) [Example 30, N-{4-[2-(3,4,5-Trimethoxy-phenylamino)-benzooxazol-7-yl]-benzyl}-acetamide] | 237 to 239 |  | 
COc1cc(Nc2nc3cccc(-c4ccc(CC(=O)N5CCOCC5)cc4)c3o2)cc(OC)c1OC [Example 140, 1-Morpholin-4-yl-2-{4-[2-(3,4,5-trimethoxy-phenylamino)-benzooxazol-7-yl]-phenyl}-ethanone] |  | 140 | 3.7
COc1cc(Nc2nc3cccc(-c4ccc(CN)cc4)c3o2)cc(OC)c1OC (hydrate or solvate) [Example 29, [7-(4-Aminomethyl-phenyl)-benzooxazol-2-yl]-(3,4,5-trimethoxy-phenyl)-amine] | 208 to 211 |  | 
COc1cc(Nc2nc3cccc(-c4ccc(CNS(C)(=O)=O)cc4)c3o2)cc(OC)c1OC [Example 31, N-{4-[2-(3,4,5-Trimethoxy-phenylamino)-benzooxazol-7-yl]-benzyl}-methanesulfonamide] |  | 60.5 | 16.2
COc1cc(Nc2nc3cccc(-c4ccc(CNC(C)=O)cc4)c3o2)cc(OC)c1OC [Example 30, N-{4-[2-(3,4,5-Trimethoxy-phenylamino)-benzooxazol-7-yl]-benzyl}-acetamide] |  | 41 | 21
